Test system: rats subjected to sTBI
Assay: sTBI rats, LMW-DS 1, 5, 15 mg/kg s.c. 30 min post-TBI: HPLC of brain free amino acids (Example 4)
Format: in vivo, rat
Details: for HYS concentration in deproteinized brain homogenate / ILE concentration in deproteinized brain homogenate / LEU concentration in deproteinized brain homogenate / LYS concentration in deproteinized brain homogenate / PHE concentration in deproteinized brain homogenate / TAU concentration in deproteinized brain homogenate / TRP concentration in deproteinized brain homogenate / TYR concentration in deproteinized brain homogenate / VAL concentration in deproteinized brain homogenate: rats 7 days post-sTBI, mean ± S.D. of 12 animals
[1] = 15 mg/kg repeated, 7 d post-sTBI
[2] = repeated administration of 15 mg/kg b.w.
[3] = single administration 1 mg/kg b.w.
[4] = single administration 5 mg/kg b.w.
[5] = single administration 15 mg/kg b.w.

sodium salt of dextran sulfate [LMW-DS]
GLN [1]: 3.88 ± 0.40 nmol/g w.w. | GLU [1]: 10.78 ± 0.91 nmol/g w.w. | GLY [1]: 0.78 ± 0.10 nmol/g w.w. | L-Cystat [1]: 0.44 ± 0.07 nmol/g w.w. | MET [1]: 0.05 ± 0.01 nmol/g w.w. | ORN [1]: 0.02 ± 0.01 nmol/g w.w. | SAH [1]: 0.04 ± 0.04 nmol/g w.w. | SER [1]: 0.79 ± 0.13 nmol/g w.w. | THR [1]: 0.77 ± 0.14 nmol/g w.w. | ALA (15 mg/kg, 2 d post-sTBI): 0.68 ± 0.07 nmol/g w.w. | ARG (15 mg/kg, 2 d post-sTBI): 0.16 ± 0.04 nmol/g w.w. | ASN (15 mg/kg, 2 d post-sTBI): 0.17 ± 0.03 nmol/g w.w. | ASP (15 mg/kg, 2 d post-sTBI): 3.05 ± 0.42 nmol/g w.w. | CITR (15 mg/kg, 2 d post-sTBI): 0.01 ± 0.01 nmol/g w.w. | GABA (15 mg/kg, 2 d post-sTBI): 1.58 ± 0.14 µmol/g w.w. | GLN (15 mg/kg, 2 d post-sTBI): 4.21 ± 0.51 nmol/g w.w. | GLU (15 mg/kg, 2 d post-sTBI): 11.79 ± 0.55 nmol/g w.w. | GLY (15 mg/kg, 2 d post-sTBI): 1.18 ± 0.23 nmol/g w.w. | HYS (15 mg/kg, 2 d post-sTBI): 0.10 ± 0.01 nmol/g w.w. | ILE (15 mg/kg, 2 d post-sTBI): 0.06 ± 0.01 nmol/g w.w. | L-Cystat (15 mg/kg, 2 d post-sTBI): 0.41 ± 0.08 nmol/g w.w. | LEU (15 mg/kg, 2 d post-sTBI): 0.04 ± 0.01 nmol/g w.w. | LYS (15 mg/kg, 2 d post-sTBI): 0.32 ± 0.12 nmol/g w.w. | MET (15 mg/kg, 2 d post-sTBI): 0.03 ± 0.01 nmol/g w.w. | ORN (15 mg/kg, 2 d post-sTBI): 0.02 ± 0.01 nmol/g w.w. | PHE (15 mg/kg, 2 d post-sTBI): 0.06 ± 0.01 nmol/g w.w. | SAH (15 mg/kg, 2 d post-sTBI): 0.06 ± 0.02 nmol/g w.w. | SER (15 mg/kg, 2 d post-sTBI): 0.76 ± 0.06 nmol/g w.w. | TAU (15 mg/kg, 2 d post-sTBI): 4.59 ± 0.43 nmol/g w.w. | THR (15 mg/kg, 2 d post-sTBI): 0.61 ± 0.13 nmol/g w.w. | TRP (15 mg/kg, 2 d post-sTBI): 0.04 ± 0.01 nmol/g w.w. | TYR (15 mg/kg, 2 d post-sTBI): 0.17 ± 0.03 nmol/g w.w. | VAL (15 mg/kg, 2 d post-sTBI): 0.06 ± 0.03 nmol/g w.w. | ALA (15 mg/kg, 7 d post-sTBI): 0.38 ± 0.04 nmol/g w.w. | ARG (15 mg/kg, 7 d post-sTBI): 0.14 ± 0.02 nmol/g w.w. | ASN (15 mg/kg, 7 d post-sTBI): 0.10 ± 0.02 nmol/g w.w. | ASP (15 mg/kg, 7 d post-sTBI): 2.29 ± 0.37 nmol/g w.w. | CITR (15 mg/kg, 7 d post-sTBI): 0.03 ± 0.01 nmol/g w.w. | GABA (15 mg/kg, 7 d post-sTBI): 1.43 ± 0.15 µmol/g w.w. | GLN (15 mg/kg, 7 d post-sTBI): 3.73 ± 0.38 nmol/g w.w. | GLU (15 mg/kg, 7 d post-sTBI): 10.25 ± 0.86 nmol/g w.w. | GLY (15 mg/kg, 7 d post-sTBI): 0.78 ± 0.12 nmol/g w.w. | L-Cystat (15 mg/kg, 7 d post-sTBI): 0.25 ± 0.04 nmol/g w.w. | MET (15 mg/kg, 7 d post-sTBI): 0.04 ± 0.01 nmol/g w.w. | ORN (15 mg/kg, 7 d post-sTBI): 0.01 ± 0.01 nmol/g w.w. | SAH (15 mg/kg, 7 d post-sTBI): 0.04 ± 0.01 nmol/g w.w. | SER (15 mg/kg, 7 d post-sTBI): 0.76 ± 0.12 nmol/g w.w. | THR (15 mg/kg, 7 d post-sTBI): 0.72 ± 0.14 nmol/g w.w. | HYS concentration in deproteinized brain homogenate [2]: 0.06 ± 0.01 nmol/g w.w. | ILE concentration in deproteinized brain homogenate [2]: 0.03 ± 0.01 nmol/g w.w. | LEU concentration in deproteinized brain homogenate [2]: 0.04 ± 0.01 nmol/g w.w. | LYS concentration in deproteinized brain homogenate [2]: 0.23 ± 0.07 nmol/g w.w. | PHE concentration in deproteinized brain homogenate [2]: 0.05 ± 0.01 nmol/g w.w. | TAU concentration in deproteinized brain homogenate [2]: 3.47 ± 0.44 nmol/g w.w. | TRP concentration in deproteinized brain homogenate [2]: 0.03 ± 0.01 nmol/g w.w. | TYR concentration in deproteinized brain homogenate [2]: 0.14 ± 0.02 nmol/g w.w. | VAL concentration in deproteinized brain homogenate [2]: 0.07 ± 0.01 nmol/g w.w. | HYS concentration in deproteinized brain homogenate [3]: 0.06 ± 0.01 nmol/g w.w. | ILE concentration in deproteinized brain homogenate [3]: 0.04 ± 0.01 nmol/g w.w. | LEU concentration in deproteinized brain homogenate [3]: 0.05 ± 0.01 nmol/g w.w. | LYS concentration in deproteinized brain homogenate [3]: 0.19 ± 0.06 nmol/g w.w. | PHE concentration in deproteinized brain homogenate [3]: 0.05 ± 0.01 nmol/g w.w. | TAU concentration in deproteinized brain homogenate [3]: 4.02 ± 0.51 nmol/g w.w. | TRP concentration in deproteinized brain homogenate [3]: 0.01 ± 0.01 nmol/g w.w. | TYR concentration in deproteinized brain homogenate [3]: 0.13 ± 0.02 nmol/g w.w. | VAL concentration in deproteinized brain homogenate [3]: 0.08 ± 0.01 nmol/g w.w. | HYS concentration in deproteinized brain homogenate [4]: 0.06 ± 0.01 nmol/g w.w. | ILE concentration in deproteinized brain homogenate [4]: 0.05 ± 0.01 nmol/g w.w. | LEU concentration in deproteinized brain homogenate [4]: 0.05 ± 0.01 nmol/g w.w. | LYS concentration in deproteinized brain homogenate [4]: 0.21 ± 0.04 nmol/g w.w. | PHE concentration in deproteinized brain homogenate [4]: 0.06 ± 0.01 nmol/g w.w. | TAU concentration in deproteinized brain homogenate [4]: 3.51 ± 0.44 nmol/g w.w. | TRP concentration in deproteinized brain homogenate [4]: 0.02 ± 0.01 nmol/g w.w. | TYR concentration in deproteinized brain homogenate [4]: 0.13 ± 0.02 nmol/g w.w. | VAL concentration in deproteinized brain homogenate [4]: 0.08 ± 0.01 nmol/g w.w. | HYS concentration in deproteinized brain homogenate [5]: 0.06 ± 0.01 nmol/g w.w. | ILE concentration in deproteinized brain homogenate [5]: 0.07 ± 0.01 nmol/g w.w. | LEU concentration in deproteinized brain homogenate [5]: 0.07 ± 0.01 nmol/g w.w. | LYS concentration in deproteinized brain homogenate [5]: 0.21 ± 0.05 nmol/g w.w. | PHE concentration in deproteinized brain homogenate [5]: 0.07 ± 0.01 nmol/g w.w. | TAU concentration in deproteinized brain homogenate [5]: 3.38 ± 0.44 nmol/g w.w. | TRP concentration in deproteinized brain homogenate [5]: 0.03 ± 0.01 nmol/g w.w. | TYR concentration in deproteinized brain homogenate [5]: 0.14 ± 0.02 nmol/g w.w. | VAL concentration in deproteinized brain homogenate [5]: 0.10 ± 0.01 nmol/g w.w.
